The values below come from EP0240391A1, “Silver salt derived from naphthyridine, useful as a bactericide, process for its preparation and compositions containing it” (EDMOND PHARMA S.R.L., priority 1986, dated 1987).

In one data set the test system is Streptococcus pyogenes. In words: In vitro antibacterial activity, MIC (CMI) by agar dilution method. It counts as cell-based. Conditions: 4 strains. The text has this: (§1) Pour l'évaluation des activités antibactérienne et antifongique ont été testées 24 souches de bactéries et 11 de champignons isolées de matériel pathologique humain récent ou provenant de collections internationales, ainsi subdivisées :
(§2) Pour l'activité in vitro on a déterminé la CMI par la méthode des dilutions (milieu agar) selon la technique classique.
(§3) La solution mère des produits à tester (composé de formule I et acide libre de départ) a été préparée par dissolution dans le diméthylsulfoxyde et addition d'eau distillée dans le rapport 1 : 1O. Les solutions ultérieures ont été préparées par dilution avec de l'eau distillée ou avec le terrain minimum essential d'Eagle contenant 3 % de serum de veau.
(§4) Les concentrations ont été exprimées en µg de substance active, calculée comme acide libre, par ml de milieu.
(§5) Le tableau I montre l'activité antibactérienne in vitro du sel d'argent de formule I ci-dessus (Composé I) et de l'acide libre correspondant (Acide libre), exprimée par le nombre de souches sensibles aux produits testés à des concentrations de 3O à O,O1 µg/ml.

The subject of another data set is Pseudomonas aeruginosa. The data set is described as above. Format: cell-based. The settings on record: 4 strains.
Description: as §1, §2, §3, §4, §5

The test system of data set [1] is Staphylococcus aureus (pen. rés.). The data set is described as above. It counts as cell-based. The settings on record: 2 penicillin-resistant strains.
Description: as §1, §2, §3, §4, §5

In the next data set the test system is Streptococcus faecalis. The data set is described as above. It counts as cell-based. The settings on record: 2 strains.
Description: as §1, §2, §3, §4, §5

A further data set has as its system Escherichia coli. Described as above. It counts as cell-based. The settings on record: 5 strains.
Description: as §1, §2, §3, §4, §5

Data set [2] relates to Streptococcus epidermidis. The data set is described as above. Conditions: 3 strains. Format: cell-based.
Description: as §1, §2, §3, §4, §5

The test system of a further data set is Staphylococcus aureus. Described as above. It counts as cell-based. Conditions: 4 strains.
Description: as §1, §2, §3, §4, §5

Data set [3] relates to Trichophyton mentagrophytes. Put plainly: In vitro antifungal activity, MIC (CMI) by agar dilution method. The settings on record: for nombre de souches sensibles aux concentrations suivantes (en µg/ml): 4 strains. Format: cell-based.
Description: as §1, §2, §3, §4

Another data set relates to Trichophyton rubrum. Described as above. Conditions: for nombre de souches sensibles aux concentrations suivantes (en µg/ml): 2 strains. Format: cell-based.
Description: as §1, §2, §3, §4

In a further data set the test system is Candida albicans. The data set is described as above. The settings on record: for nombre de souches sensibles aux concentrations suivantes (en µg/ml): 5 strains. Format: cell-based.
Description: as §1, §2, §3, §4

The nature of data set [4]: Photosensitivity compared with other antibacterial silver salts. It counts as physicochemical. Conditions: e.g. sel d'argent de la sulfadiazine, solid state and in solution.
The conditions of data set [5]: compared with the corresponding free acid; from European patent 49593; cited from earlier work.

As for `CCn1cc(C(=O)O)c(=O)c2cc(F)c(N3CCNCC3)nc21` [Acide libre, acide 1-éthyl-6-fluoro-1,4-dihydro-4-oxo-7-(1-pipérazinyl)-1,8-naphtyridine-3-carboxylique, reference compound], the “Nombre de souches sensibles aux concentrations suivantes (µg/ml)” value with Streptococcus pyogenes (1 µg/ml (as free acid)) is 1; in the data set on Streptococcus pyogenes (3 µg/ml (as free acid)), 1; in the data set on Streptococcus pyogenes (10 µg/ml (as free acid)) it was 2; in the data set with Pseudomonas aeruginosa (0,3 µg/ml (as free acid)) it was 3; in the data set with Pseudomonas aeruginosa (1 µg/ml (as free acid)) it was 1; in [1] (0,3 µg/ml (as free acid)), 1. Also, the “Nombre de souches sensibles aux concentrations suivantes (µg/ml)” value was found to be 1 in [1] (1 µg/ml (as free acid)); 1 with Streptococcus faecalis (10 µg/ml (as free acid)); 1 in the data set on Streptococcus faecalis (30 µg/ml (as free acid)); 2 with Escherichia coli (0,1 µg/ml (as free acid)); 1 in the data set on Escherichia coli (0,03 µg/ml (as free acid)); 2 in the data set on Escherichia coli (0,3 µg/ml (as free acid)). Also, the “Nombre de souches sensibles aux concentrations suivantes (µg/ml)” value in [2] (3 µg/ml (as free acid)) came to 2; in data set [2] (10 µg/ml (as free acid)), 1; with Staphylococcus aureus (0,1 µg/ml (as free acid)), 1; in the data set with Staphylococcus aureus (1 µg/ml (as free acid)) it was 2. Also, the MIC in data set [3] (Trichophyton mentagrophytes, same 4 strains as Table II, read-out: activité antifongique: inactif jusqu'à des concentrations de) is more than 1 µg/mL; in the data set with Trichophyton rubrum (Trichophyton rubrum, same 2 strains as Table II, read-out: activité antifongique: inactif jusqu'à des concentrations de), more than 1 µg/mL; in the data set with Candida albicans (Candida albicans, same 5 strains as Table II, read-out: activité antifongique: inactif jusqu'à des concentrations de) it was more than 1 µg/mL.
On to “sel d'argent de l'acide 1-éthyl-6-fluoro-1,4-dihydro-4-oxo-7-(1-pipérazinyl)-1,8-naphtyridine-3-carboxylique [Composé I]”, for which the photosensibilité result in [4] is recorded as “moins photosensible”. Further, the “Nombre de souches sensibles aux concentrations suivantes (µg/ml)” value in the data set on Streptococcus pyogenes (1 µg/ml (as free acid)) is listed as 1; with Streptococcus pyogenes (3 µg/ml (as free acid)), 2; with Streptococcus pyogenes (10 µg/ml (as free acid)), 1; in the data set with Pseudomonas aeruginosa (0,1 µg/ml (as free acid)), 3; in the data set with Pseudomonas aeruginosa (0,03 µg/ml (as free acid)) it was 1; in [1] (0,1 µg/ml (as free acid)) it was 1. Also, the “Nombre de souches sensibles aux concentrations suivantes (µg/ml)” value in data set [1] (0,3 µg/ml (as free acid)) worked out at 1; in the data set with Streptococcus faecalis (1 µg/ml (as free acid)), 1; in the data set on Streptococcus faecalis (3 µg/ml (as free acid)), 1; in the data set with Escherichia coli (0,1 µg/ml (as free acid)), 2; in the data set on Escherichia coli (0,03 µg/ml (as free acid)), 1; in the data set with Escherichia coli (0,3 µg/ml (as free acid)), 2. The “Nombre de souches sensibles aux concentrations suivantes (µg/ml)” value was determined as 1 in data set [2] (0,3 µg/ml (as free acid)); 1 in [2] (1 µg/ml (as free acid)); 1 in [2] (3 µg/ml (as free acid)); 3 in the data set on Staphylococcus aureus (0,1 µg/ml (as free acid)); 1 in the data set with Staphylococcus aureus (0,3 µg/ml (as free acid)). For the same compound, the “nombre de souches sensibles aux concentrations suivantes (en µg/ml)” value in data set [3] (3 µg/ml (as free acid)) is on record as 1; in data set [3] (10 µg/ml (as free acid)), 2; in data set [3] (30 µg/ml (as free acid)), 1; in the data set on Trichophyton rubrum (10 µg/ml (as free acid)) it was 1; in the data set with Trichophyton rubrum (30 µg/ml (as free acid)), 1; with Candida albicans (3 µg/ml (as free acid)), 1. In addition, the “nombre de souches sensibles aux concentrations suivantes (en µg/ml)” value in the data set on Candida albicans (10 µg/ml (as free acid)) was 3; in the data set on Candida albicans (30 µg/ml (as free acid)), 1.
For “sel d'argent de l'acide 1-éthyl-6-fluoro-1,4-dihydro-4-oxo-7-(1-pipérazinyl)-quinolinyl-3-carboxilique”, the “activité antibactérienne” value in data set [5] is given as “du même ordre que celle de l'acide libre correspondant”.
